Measurements as given in patent US9452037B2, “Delivery of oral care products” (INTERNATIONAL SCIENTIFIC PTY LTD, priority 2010, dated 2016).

Assay: Tooth whitening of extracted human teeth with carbamide peroxide gel, delivered passively or with displaced dipolar magnetic elements in motion
Settings: for relative (%) change in tooth colour (reduction in yellow content), mean: 700 mg of 36% gel, 10 teeth; for relative (%) change in tooth colour (reduction in yellow content), mean / average shift from the yellow spectrum to the white spectrum, mean / change in colour luminosity, mean: 3 minutes daily for 5 days; for average shift from the yellow spectrum to the white spectrum, mean / change in colour luminosity, mean: 36% gel
Method: The ability of the devices of the present invention to deliver active agents (carbamide peroxide) through the dentine of teeth was tested.
20 human teeth were donated by a registered oral surgeon and stored in alcohol for 48 hours prior to ultrasonic cleaning and drying using warm air and absorbent paper. Teeth were divided into two groups. 10 teeth were allocated to the active group (exposed to pairs of displaced dipolar magnetic elements in motion) and 10 allocated to the passive delivery group (exposed to materials with no magnetic field but also in motion). Size, colour and degree of degeneration were matched between the groups.
Individual teeth were photographed using controlled light conditions before and after application of Carbamide Peroxide Gel using a 10 megapixel camera (Pentax Optio) digital camera. Commercial digital imaging software (Photoshop CS2 version 9), was used in CMYK mode to degenerate histograms and images of matched regions of enamel in tooth before and after application.
Each tooth was treated using 700 mg of 36% Carbaminde Peroxide based Tooth Whitening gel. This measure of gel was place on the surface of 10 sized matched pairs of displaced dipolar magnetic elements comprising flexible ETP008 magnetic material formed of a parallel linear array of displaced dipolar magnetic elements with common pole pairs of 450 gauss peak flux with a centre to centre spatial separation of 4 mm oscillated by electrical motor at a frequency of 3 Hz [this is also known as the field-in-motion or FIM group, or eM patch group]. The control group was placed on the surface of polystyrene cards and also oscillated at 3 Hz using the same motorized oscillation means. Teeth were placed horizontally into the carbamide peroxide gel mounds ensuring complete contact and coverage. After 3 minutes of exposure, teeth were removed, cleaned and preserved for the following day. This was repeated for 5 consecutive days.
Analysis was conducted using three measures of colour change. Relative change in percentage of yellow in the image, changes in the spectrum shift from yellow to white and in the luminosity level.
Relative change in the percentage of Yellow in the matched regions of enamel was taken as reflecting the change in the colour of the underlying dentin materials. Differences in the relative change in the Yellow spectrum were interpreted as reflecting the different penetrations rates of peroxide delivery through the enamel under active and passive conditions.
Changes in the spectrum medium point reflects change in colour from the yellow towards the white end of the spectrum. Again, differences in spectrum medium point location were interpreted as reflecting the different penetrations rates of peroxide delivery through the enamel under active and passive conditions.
Luminosity was recorded as a measure of brightness with changes reflecting different penetrations rates of peroxide delivery through the enamel under active and passive conditions.

[1] = Magnetic FIM (eM-patch): ETP008 array oscillated at 3 Hz
[2] = Passive: no magnetic field, oscillated at 3 Hz

Question: For `NC(N)=O.OO` [carbamide peroxide], which “relative (%) change in tooth colour (reduction in yellow content), mean” value [1] is on record?
Answer: 43.98%

Question: What about the “average shift from the yellow spectrum to the white spectrum, mean” value [1] of the same molecule?
Answer: 36.20

Question: What about the “change in colour luminosity, mean” value [1] of the same molecule?
Answer: 29.54

Question: What about the “average shift from the yellow spectrum to the white spectrum, mean” value [2] of the same molecule?
Answer: 27.70

Question: And the “change in colour luminosity, mean” value [2]?
Answer: 21.09

Question: And the “relative (%) change in tooth colour (reduction in yellow content), mean” value (Passive: polystyrene card oscillated at 3 Hz, no magnetic field)?
Answer: 29.58%

Question: And the “greater increase in luminosity than the passive group” value (magnetic elements in motion vs passive, p=0.023)?
Answer: 40%

Question: And the “greater reduction in yellow content compared to the passive group” value (magnetic elements in motion vs passive, p=0.025)?
Answer: 49%

Question: And the “average shift from yellow to white spectrum greater than the passive diffusion group” value (magnetic elements in motion vs passive, p=0.044)?
Answer: 31%
